Source: US20090170901A1, “Benzoyl Urea Derivatives” (priority 2004, published 2009)
Read-outs that look alike come from different tables or passages of the source.

What was measured:
NMRI mice = experiment: Mouse formalin test (second phase) for in vivo efficacy; details: for ED50 at 20 mg/kg: Mus musculus, po
NR1a/NR2B NMDA receptor = biological target: T1, NR1a/NR2B NMDA receptor (Rattus norvegicus, UniProt P35439+Q00960); experiment: Functional NMDA antagonism, fluorimetric intracellular calcium measurement on HEK293 cells expressing NR1a/NR2B; format: cell-based
T1 construct: expressed in transfected cells
Protocol: (§1) Compounds were tested for their inhibitory action on NMDA evoked cytosolic calcium elevations in fluorescent calcium measurements. Studies were performed 48-72 h after addition of the inducing agent. Ketamine (500 μM) was also present during the induction in order to prevent cytotoxicity.
(§2) Assessing the Functional NMDA Antagonist Potency of Compounds on HEK293 cells expressing Recombinant NMDA Receptors Based on Measuring the Intracellular Calcium Concentration Using a Fluorimeter Plate Reader
Since NMDA receptors are known to be permeable to calcium ions upon excitation, the extent of NMDA receptor activation, and its inhibition by functional antagonists can be characterised by measuring the rise in the intracellular calcium concentration following agonist (NMDA) application onto the cells.
The intracellular calcium measurements are carried out on HEK293 cells expressing NR1a and NR2B or NR2A NMDA receptor subunits.
(§3) Loading is stopped by washing twice with the solution used also during the measurement (140 mM NaCl 5 mM KCl, 2 mM CaCl2, 5 mM HEPES [4-(2-hydroxyethyl)-1-piperazineethane-sulfonic acid], 5 mM HEPES—Na, 20 mM glucose, 10 μM glycine, pH=7.4). Then the test compound dissolved in the above solution (90 μl/well) is added. Intracellular calcium measurements are carried out with a plate reader fluorimeter. A rise in Fluo-4-fluorescence that reflects the intracellular calcium concentration is induced by application of 200 μM NMDA. Inhibitory potency of the test compound is assessed by measuring the reduction in the calcium elevation in the presence of different concentrations of the compound.
(§4) Inhibitory potency of a compound at a single concentration point is expressed as percent inhibition of the control NMDA response. For NR1a/NR2B expressing cells concentration-inhibition curves are produced. Sigmoidal concentration-inhibition curves are fitted over the data and IC50 values are defined as the concentration that produces half of the maximal inhibition that could be achieved with the compound. Mean IC50 values are derived from at least three independent experiments. For NR1-3/NR2A expressing cells antagonism of NMDA induced rise in intracellular calcium concentration by compounds of the present invention and reference compounds was tested at 10 and 15 microM concentration, respectively.

NR1-3/NR2A NMDA receptor = biological target: T2, NR1-3/NR2A NMDA receptor (Homo sapiens, UniProt Q05586+Q12879); experiment: Functional NMDA antagonism, fluorimetric intracellular calcium measurement on HEK293 cells expressing NR1-3/NR2A; format: cell-based; details: NMDA evoked calcium rise, NR1-3/NR2A transfected HEK293 cells; for inhibition at 15 µM: Table 1, 15 uM compound
T2 construct: expressed in transfected cells
Protocol: as §1, with “(1997); Neurochemistry International, 43, 19-29. (2003)]. […] Compounds” for “Compounds”
as §2
Since NMDA receptors are known to be permeable to calcium ions upon excitation, the extent of NMDA receptor activation, and its inhibition by functional antagonists can be characterised by measuring the rise in the intracellular calcium concentration following agonist (NMDA) application onto the cells. Since there is very high sequence homology between rat and human NMDA receptors (99, 95, 97% for NR1, NR2A, and NR2B subunits, respectively), it is believed that there is little, if any, difference in their pharmacological sensitivity.
The intracellular calcium measurements are carried out on HEK293 cells expressing NR1a and NR2B or NR2A NMDA receptor subunits. Cells are plated onto standard 96-well microplates and the cultures are maintained in an atmosphere of 95% air-5% CO2 at 37° C. until testing.
as §3, with “The cells are loaded with a fluorescent Ca^2+-sensitive dye, Fluo-4/AM (2-2.5 μM) prior to testing. Loading” for “Loading”
as §4

[1] = given 15 min before formalin, licking/biting time 20 to 25 min after formalin, >20 means inhibition less than 50% at 20 mg/kg p.o.
[2] = ip, mouse formalin test, read-out: ED50
[3] = Table 2, reference compounds, 10 uM compound
[4] = Table 1, inhibition of calcium rise induced by 200 μM NMDA, NR1a/NR2B transfected HEK293 cells, read-out: NR1a/NR2B IC50

T2 sequence (Q12879 23-1464, other chains not shown): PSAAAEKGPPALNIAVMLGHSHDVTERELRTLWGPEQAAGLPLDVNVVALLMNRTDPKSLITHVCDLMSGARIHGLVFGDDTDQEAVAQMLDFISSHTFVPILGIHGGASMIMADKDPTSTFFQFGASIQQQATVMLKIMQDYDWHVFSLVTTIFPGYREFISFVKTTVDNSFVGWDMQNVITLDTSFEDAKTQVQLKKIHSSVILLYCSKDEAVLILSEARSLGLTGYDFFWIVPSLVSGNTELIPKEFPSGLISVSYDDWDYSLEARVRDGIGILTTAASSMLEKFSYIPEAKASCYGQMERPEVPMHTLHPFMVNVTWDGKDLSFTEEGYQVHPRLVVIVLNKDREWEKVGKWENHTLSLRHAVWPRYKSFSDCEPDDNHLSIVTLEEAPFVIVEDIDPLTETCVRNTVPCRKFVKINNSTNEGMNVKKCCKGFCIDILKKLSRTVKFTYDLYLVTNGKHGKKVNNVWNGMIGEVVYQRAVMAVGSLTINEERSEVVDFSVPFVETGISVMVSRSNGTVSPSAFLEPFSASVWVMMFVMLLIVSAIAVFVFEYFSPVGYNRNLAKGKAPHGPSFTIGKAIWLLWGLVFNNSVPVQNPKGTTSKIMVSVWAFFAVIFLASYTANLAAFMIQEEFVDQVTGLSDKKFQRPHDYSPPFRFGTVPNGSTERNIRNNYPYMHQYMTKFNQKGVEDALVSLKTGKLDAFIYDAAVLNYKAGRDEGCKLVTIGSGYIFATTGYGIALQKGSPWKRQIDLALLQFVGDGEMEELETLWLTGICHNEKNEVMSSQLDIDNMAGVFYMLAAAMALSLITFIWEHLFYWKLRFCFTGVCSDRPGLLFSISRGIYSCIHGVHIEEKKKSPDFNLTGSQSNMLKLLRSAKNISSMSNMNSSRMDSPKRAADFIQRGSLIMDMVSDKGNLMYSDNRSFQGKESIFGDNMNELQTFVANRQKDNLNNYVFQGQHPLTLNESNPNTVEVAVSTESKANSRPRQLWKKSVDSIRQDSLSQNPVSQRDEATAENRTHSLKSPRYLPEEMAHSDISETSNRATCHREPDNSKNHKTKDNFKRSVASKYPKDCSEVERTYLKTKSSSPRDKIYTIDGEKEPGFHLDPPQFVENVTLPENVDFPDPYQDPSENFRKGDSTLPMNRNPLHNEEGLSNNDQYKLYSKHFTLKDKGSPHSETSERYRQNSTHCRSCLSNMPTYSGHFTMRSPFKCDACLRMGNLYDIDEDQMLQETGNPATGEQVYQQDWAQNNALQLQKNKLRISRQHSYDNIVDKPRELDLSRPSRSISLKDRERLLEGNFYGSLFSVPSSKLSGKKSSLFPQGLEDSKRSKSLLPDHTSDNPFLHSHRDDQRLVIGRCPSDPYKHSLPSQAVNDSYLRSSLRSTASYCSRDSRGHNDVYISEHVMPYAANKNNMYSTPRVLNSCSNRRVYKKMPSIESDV
T1 sequence (Q00960 27-1482, other chains not shown): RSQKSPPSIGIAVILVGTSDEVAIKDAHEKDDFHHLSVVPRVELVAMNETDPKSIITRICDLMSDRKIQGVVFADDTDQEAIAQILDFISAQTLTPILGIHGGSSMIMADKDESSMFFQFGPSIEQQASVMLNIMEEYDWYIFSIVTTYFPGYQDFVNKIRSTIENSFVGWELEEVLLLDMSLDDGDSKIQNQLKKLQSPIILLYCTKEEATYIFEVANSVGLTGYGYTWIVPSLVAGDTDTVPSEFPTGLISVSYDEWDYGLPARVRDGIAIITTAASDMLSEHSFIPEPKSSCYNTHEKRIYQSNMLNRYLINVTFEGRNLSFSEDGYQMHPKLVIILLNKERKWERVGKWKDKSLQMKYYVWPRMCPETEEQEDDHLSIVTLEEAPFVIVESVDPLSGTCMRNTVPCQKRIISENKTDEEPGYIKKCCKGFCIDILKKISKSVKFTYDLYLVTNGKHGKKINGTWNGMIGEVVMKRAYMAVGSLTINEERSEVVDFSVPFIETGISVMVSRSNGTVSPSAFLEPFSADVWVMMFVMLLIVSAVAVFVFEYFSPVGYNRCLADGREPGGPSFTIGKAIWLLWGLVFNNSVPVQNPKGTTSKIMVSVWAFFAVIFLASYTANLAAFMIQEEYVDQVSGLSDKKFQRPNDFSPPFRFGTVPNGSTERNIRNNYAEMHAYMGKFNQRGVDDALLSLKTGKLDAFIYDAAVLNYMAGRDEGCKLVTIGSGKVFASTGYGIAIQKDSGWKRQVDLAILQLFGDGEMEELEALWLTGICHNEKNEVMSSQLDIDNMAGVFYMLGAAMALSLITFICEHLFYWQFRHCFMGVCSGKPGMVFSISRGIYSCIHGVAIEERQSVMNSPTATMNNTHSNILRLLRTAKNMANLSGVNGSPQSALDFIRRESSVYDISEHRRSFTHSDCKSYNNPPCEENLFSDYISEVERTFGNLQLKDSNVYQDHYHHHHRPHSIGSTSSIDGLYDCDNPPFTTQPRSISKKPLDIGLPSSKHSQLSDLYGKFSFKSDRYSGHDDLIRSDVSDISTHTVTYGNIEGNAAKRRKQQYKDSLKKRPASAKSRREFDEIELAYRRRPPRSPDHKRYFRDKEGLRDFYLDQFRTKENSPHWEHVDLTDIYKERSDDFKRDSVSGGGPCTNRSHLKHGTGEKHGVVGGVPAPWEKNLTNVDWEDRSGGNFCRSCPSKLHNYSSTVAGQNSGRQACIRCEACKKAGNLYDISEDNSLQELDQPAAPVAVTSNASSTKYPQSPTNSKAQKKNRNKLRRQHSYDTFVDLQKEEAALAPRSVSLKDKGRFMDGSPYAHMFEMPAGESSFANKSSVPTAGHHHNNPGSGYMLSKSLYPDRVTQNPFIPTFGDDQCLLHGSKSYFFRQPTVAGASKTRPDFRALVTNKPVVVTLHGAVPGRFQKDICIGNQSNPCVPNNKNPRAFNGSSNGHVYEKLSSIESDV

| Structure (SMILES) | ED50 at 20 mg/kg (NMRI mice; [1]) [mg/kg] | IC50 (NR1a/NR2B NMDA receptor; [4]) [nM] | inhibition at 15 µM (NR1-3/NR2A NMDA receptor) [%] | further results |
| --- | --- | --- | --- | --- |
| O=c1[nH]c2ccc([S+]([O-])CCN3CCC(Cc4ccc(F)cc4)CC3)cc2o1 (centres unmarked) [CI-1041, 6-{2-[4-(4-fluoro-benzyl)-piperidin-1-yl]-ethanesulfinyl}-3H-benzooxazol-2-one] | 2.4 |  |  |  |
| C[C@@H]([C@@H](O)c1ccc(O)cc1)N1CCC(O)(c2ccccc2)CC1 [CP 101,606, (1S,2S)-1-(4-hydroxyphenyl)-2-(4-hydroxy-4-phenylpiperidine-1-yl)-1-propanol] | > 20 |  |  |  |
| Cc1ccc(CC2(O)CCN(CCOc3ccc(O)cc3)CC2)cc1 [Co-101244, 1-[2-(4-hydroxyphenoxy)ethyl]-4-hydroxy-4-(4-methylbenzyl)piperidine] | > 20 |  |  | ED50 (NMRI mice; [2]): 5.9 mg/kg |
| O=C(CCN1CCC(Cc2ccc(F)cc2)CC1)c1ccc2[nH]c(=O)oc2c1 [EMD 95885, reference compound] |  |  |  | IC50 (NR1a/NR2B NMDA receptor; Table 2, reference compounds, inhibition of calcium rise induced by 200 μM NMDA, NR1a/NR2B transfected HEK293 cells, read-out: NR1a/NR2B IC50): 48 nM; NR1-3/NR2A % inhibition at 10 uM (NR1-3/NR2A NMDA receptor; [3]): 0.1%; ED50 (NMRI mice; p.o., given 15 min before formalin, licking/biting time 20 to 25 min after formalin, >20 means inhibition less than 50% at 20 mg/kg p.o.): 3.7 mg/kg |
| O=C(NC(=O)N1CCC(Cc2ccccc2)CC1)c1ccc(O)cc1 [Example 1, 4-Benzyl-piperidine-1-carboxylic Acid 4-hydroxy-benzoylamide] |  | 28 | 2.6 |  |
| COc1ccc(CC2CCN(C(=O)NC(=O)c3ccc(O)cc3)CC2)cc1 [Example 2, 4-(4-Methoxy-benzyl)-piperidine-1-carboxylic Acid 4-hydroxy-benzoylamide] |  | 7.6 | -5.7 |  |
| O=C(NC(=O)N1CCC(Cc2ccccc2)CC1)c1ccc2[nH]c(=O)oc2c1 [Example 7, 4-Benzyl-piperidine-1-carboxylic Acid (2-oxo-2,3-dihydro-benzooxazole-6-carbonyl)-amide] |  | 59.6 | -6.7 |  |
| COc1cccc(CC2CCN(C(=O)NC(=O)c3ccc(O)cc3)CC2)c1 [Example 26, 4-(3-Methoxy-benzyl)-piperidine-1-carboxylic Acid 4-hydroxy-benzoylamide] |  | 58.9 | -0.9 |  |
| Cc1ccc(CCC2CCN(C(=O)NC(=O)c3ccc(O)cc3)CC2)cc1 [Example 27, 4-[2-(p-Tolyl)-ethyl]-piperidine-1-carboxylic acid 4-hydroxy-benzoylamide] |  | 14.3 | 11.4 |  |
| O=C(NC(=O)N1CCC(CSc2ccccc2)CC1)c1ccc(O)cc1 [Example 28, 4-(Phenylthio-methyl)-piperidine-1-carboxylic Acid 4-hydroxy-benzoylamide] |  | 59.1 | -2.9 |  |
| C[C@@H](CN1CCC(Cc2ccccc2)CC1)[C@@H](O)c1ccc(O)cc1 [Ro 25.6981, R—(R*,S*)-1-(4-hydroxyphenyl)-2-methyl-3-[4-(phenylmethyl)piperidin-1-yl]-1-propanol, reference compound] | > 20 |  |  | IC50 (NR1a/NR2B NMDA receptor): 57 nM; inhibition at 10 µM (NR1-3/NR2A NMDA receptor; [3]): 1%; ED50 (NMRI mice; [2]): 5.1 mg/kg |
